Data published in PubChem BioAssay AID342 (DTP/NCI, 2004).
Where “and” joins values, the source holds several entries; their conditions need not be identical. Identical values can stand only once. Square brackets hold non-standard residues; d marks the D form. Peptide text beside a SMILES is read from it. Ac5c = NC1(C(=O)O)CCCC1

Test system: Swiss mice, Sarcoma 180 sc, mean tumor weight T/C
Experiment: NCI In Vivo Anticancer Drug Screen. Data for tumor model Sarcoma 180 (subcutaneous) in Swiss mice
Settings: endpoint: mean tumor weight, higher = larger tumour
Procedure, shortened: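 T/C ratio: treated over vehicle-treated controls, measuring survival or tumor size in transplanted-tumor mice.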

[1] = dose: 25.0 mg/kg/injection, schedule: Q#A X014 (oral), vehicle: steriod suspending solution
[2] = dose: 100.0 mg/kg/injection, schedule: Q01DX007 (ip), vehicle: saline

`O=C(NCCCCCCCCCCNC(=O)N1CC1)N1CC1` was tested. Which T/C (dose: 0.9 mg/kg/injection, schedule: Q01DX007 (ip), vehicle: carboxymethylcellulose (CMC)) did it give?
The T/C was 66 % of control and 83 % of control.

What about the T/C (dose: 0.9 mg/kg/injection, schedule: Q01DX007 (ip), vehicle: saline) of the same molecule?
The T/C was 70 % of control.

And the T/C (dose: 1.3 mg/kg/injection, schedule: Q01DX007 (ip), vehicle: carboxymethylcellulose (CMC))?
Its T/C is 64 % of control and 65 % of control.

What about the T/C (dose: 1.3 mg/kg/injection, schedule: Q01DX007 (ip), vehicle: saline) of the same molecule?
The T/C was 67 % of control.

And the T/C (dose: 2.0 mg/kg/injection, schedule: Q01DX007 (ip), vehicle: carboxymethylcellulose (CMC))?
Its T/C is 35 % of control and 43 % of control.

What about the T/C (dose: 2.0 mg/kg/injection, schedule: Q01DX007 (ip), vehicle: saline) of the same molecule?
Its T/C is 48 % of control.

And the T/C (dose: 3.0 mg/kg/injection, schedule: Q01DX007 (ip), vehicle: carboxymethylcellulose (CMC))?
The T/C was 10 % of control and 21 % of control.

And the T/C (dose: 3.0 mg/kg/injection, schedule: Q01DX007 (ip), vehicle: saline)?
Its T/C is 34 % of control.

And the T/C (dose: 4.0 mg/kg/injection, schedule: Q01DX007 (ip), vehicle: carboxymethylcellulose (CMC))?
The T/C was 38 % of control.

`CCN(CC)c1ccc2cc3ccc(=[N+](CC)CC)cc-3oc2c1` was tested. Which T/C (dose: 0.42 mg/kg/injection, schedule: Q#A X014 (ip), vehicle: carboxymethylcellulose (CMC)) did it give?
The T/C was 84 % of control.

What about the T/C (dose: 0.83 mg/kg/injection, schedule: Q#A X014 (ip), vehicle: carboxymethylcellulose (CMC)) of the same molecule?
Its T/C is 106 % of control.

And the T/C (dose: 1.67 mg/kg/injection, schedule: Q#A X014 (ip), vehicle: carboxymethylcellulose (CMC))?
Its T/C is 82 % of control.

What about the T/C (dose: 3.35 mg/kg/injection, schedule: Q#A X014 (ip), vehicle: carboxymethylcellulose (CMC)) of the same molecule?
The T/C was 73 % of control.

What about the T/C (dose: 6.25 mg/kg/injection, schedule: Q01DX007 (ip), vehicle: other) of the same molecule?
The T/C was 111 % of control.

What about the T/C (dose: 12.5 mg/kg/injection, schedule: Q01DX007 (ip), vehicle: other) of the same molecule?
The T/C was 98 % of control.

What does the source list for `CO[C@H]1CC[C@@]2(C)C(=CC[C@H]3[C@@H]4C[C@H](O)C[C@@]4(C)CC[C@@H]32)C1`?
T/C (dose: 2.5 mg/kg/injection, schedule: Q01DX007 (sc), vehicle: steriod suspending solution): 105 % of control; T/C (dose: 5.0 mg/kg/injection, schedule: Q01DX007 (sc), vehicle: steriod suspending solution): 80 % of control

Which T/C (dose: 65.0 mg/kg/injection, schedule: Q#A X014 (ip), vehicle: methylcellulose (MC)) does the source give for `CCCCCCCCCCCCCCCCCCNC(=S)N/N=C/c1ccc(Cl)cc1Cl` here?
Its T/C is 35 % of control and 53 % of control.

Which T/C [1] does the source give for `CC(=O)[C@H]1CC[C@H]2[C@@H]3C[C@H](C)C4=CC(=O)CC[C@]4(C)[C@H]3C(=O)C[C@]12C` here?
Its T/C is 72 % of control.

And the T/C (dose: 62.5 mg/kg/injection, schedule: Q#A X014 (oral), vehicle: steriod suspending solution)?
The T/C was 55 % of control.

What about the T/C (dose: 110.0 mg/kg/injection, schedule: Q#A X014 (oral), vehicle: steriod suspending solution) of the same molecule?
The T/C was 86 % of control.

How did the T/C (dose: 25.0 mg/kg/injection, schedule: Q01DX007 (ip), vehicle: saline) turn out when `COc1ccc(-c2cc(=O)c3c(O)c(OC)c(O)cc3o2)cc1` was run?
Its T/C is 73 % of control.

What about the T/C (dose: 50.0 mg/kg/injection, schedule: Q01DX007 (ip), vehicle: saline) of the same molecule?
Its T/C is 79 % of control.

What about the T/C [2] of the same molecule?
Its T/C is 85 % of control.

What does the source list for `c1ccn(-c2nc(-n3cccc3)nc(-n3cccc3)n2)c1`?
T/C (dose: 31.25 mg/kg/injection, schedule: Q#A X014 (ip), vehicle: carboxymethylcellulose (CMC)): 47 % of control; T/C (dose: 62.5 mg/kg/injection, schedule: Q#A X014 (ip), vehicle: carboxymethylcellulose (CMC)): 43 % of control; T/C (dose: 125.0 mg/kg/injection, schedule: Q#A X014 (ip), vehicle: carboxymethylcellulose (CMC)): 46 % of control

`CCNc1nncs1` was tested. Which T/C (dose: 13.7 mg/kg/injection, schedule: Q01DX007 (ip), vehicle: carboxymethylcellulose (CMC)) did it give?
The T/C was 59 % of control.

What about the T/C (dose: 16.37 mg/kg/injection, schedule: Q01DX007 (ip), vehicle: carboxymethylcellulose (CMC)) of the same molecule?
The T/C was 97 % of control and 108 % of control.

What about the T/C (dose: 27.5 mg/kg/injection, schedule: Q01DX007 (ip), vehicle: carboxymethylcellulose (CMC)) of the same molecule?
The T/C was 58 % of control.

What about the T/C (dose: 32.75 mg/kg/injection, schedule: Q01DX007 (ip), vehicle: carboxymethylcellulose (CMC)) of the same molecule?
Its T/C is 75 % of control and 98 % of control.

And the T/C (dose: 55.0 mg/kg/injection, schedule: Q01DX007 (ip), vehicle: carboxymethylcellulose (CMC))?
Its T/C is 47 % of control.

What about the T/C (dose: 110.0 mg/kg/injection, schedule: Q01DX007 (ip), vehicle: carboxymethylcellulose (CMC)) of the same molecule?
The T/C was 41 % of control.

What about the T/C (dose: 131.0 mg/kg/injection, schedule: Q01DX007 (ip), vehicle: carboxymethylcellulose (CMC)) of the same molecule?
The T/C was 46 % of control and 71 % of control.

Which T/C (dose: 0.25 mg/kg/injection, schedule: Q01DX007 (ip), vehicle: carboxymethylcellulose (CMC)) does the source give for `CN1CCCC1c1cccnc1` (configuration not stated) here?
Its T/C is 76 % of control.

And the T/C (dose: 0.5 mg/kg/injection, schedule: Q01DX007 (ip), vehicle: carboxymethylcellulose (CMC))?
Its T/C is 105 % of control.

And the T/C (dose: 1.0 mg/kg/injection, schedule: Q01DX007 (ip), vehicle: carboxymethylcellulose (CMC))?
The T/C was 66 % of control.

`NCC(=O)NC1(C(=O)O)CCCC1` (H-Gly-[Ac5c]-OH) was tested. Which T/C (dose: 66.0 mg/kg/injection, schedule: Q01DX007 (ip), vehicle: saline) did it give?
Its T/C is 57 % of control.

What about the T/C [2] of the same molecule?
Its T/C is 103 % of control.

What about the T/C (dose: 150.0 mg/kg/injection, schedule: Q01DX007 (ip), vehicle: saline) of the same molecule?
Its T/C is 45 % of control.

What about the T/C (dose: 225.0 mg/kg/injection, schedule: Q01DX007 (ip), vehicle: saline) of the same molecule?
The T/C was 47 % of control.

Which T/C (dose: 150.0 mg/kg/injection, schedule: Q01DX007 (ip), vehicle: carboxymethylcellulose (CMC)) does the source give for `CN1Cc2c(ccc3c2OCO3)[C@@H]2[C@H](O)Cc3cc4c(cc3[C@@H]21)OCO4` here?
The T/C was 93 % of control.

With `COC1N(C2CC(O)C(CO)O2)C(=O)NC(=O)C1(F)Br` (configuration not stated) as the molecule, how does the T/C (dose: 22.0 mg/kg/injection, schedule: Q01DX007 (ip), vehicle: saline) read?
The T/C was 85 % of control and 99 % of control.

What about the T/C (dose: 75.0 mg/kg/injection, schedule: Q01DX007 (ip), vehicle: saline) of the same molecule?
Its T/C is 26 % of control and 43 % of control.

How did the T/C (dose: 6.25 mg/kg/injection, schedule: Q01DX007 (ip), vehicle: saline) turn out when `CCc1c(CC(=O)O)c2cc(C)ccc2n1Cc1ccc(Cl)cc1` was run?
The T/C was 82 % of control.

And the T/C (dose: 12.5 mg/kg/injection, schedule: Q01DX007 (ip), vehicle: saline)?
Its T/C is 98 % of control and 87 % of control.

What about the T/C (dose: 24.0 mg/kg/injection, schedule: Q01DX007 (ip), vehicle: carboxymethylcellulose (CMC)) of the same molecule?
The T/C was 95 % of control.

And the T/C (dose: 36.0 mg/kg/injection, schedule: Q01DX007 (ip), vehicle: carboxymethylcellulose (CMC))?
Its T/C is 89 % of control.

And the T/C (dose: 54.0 mg/kg/injection, schedule: Q01DX007 (ip), vehicle: carboxymethylcellulose (CMC))?
The T/C was 109 % of control.

What about the T/C (dose: 81.0 mg/kg/injection, schedule: Q01DX007 (ip), vehicle: carboxymethylcellulose (CMC)) of the same molecule?
Its T/C is 73 % of control.

And the T/C [2]?
The T/C was 64 % of control and 80 % of control.

With `COc1cccc2c1-c1ccccc1C2` as the molecule, how does the T/C (dose: 62.5 mg/kg/injection, schedule: Q01DX007 (ip), vehicle: carboxymethylcellulose (CMC)) read?
Its T/C is 151 % of control.

And the T/C (dose: 250.0 mg/kg/injection, schedule: Q01DX007 (ip), vehicle: carboxymethylcellulose (CMC))?
The T/C was 114 % of control.

Which results are given for `CC(=O)[C@H]1CC[C@H]2[C@@H]3CCC4=CC(=O)[C@H](C)C[C@]4(C)[C@H]3C(=O)C[C@]12C`?
T/C (dose: 50.0 mg/kg/injection, schedule: Q#A X014 (oral), vehicle: steriod suspending solution): 97 % of control; T/C (dose: 125.0 mg/kg/injection, schedule: Q#A X014 (oral), vehicle: steriod suspending solution): 68 % of control; T/C (dose: 250.0 mg/kg/injection, schedule: Q#A X014 (oral), vehicle: steriod suspending solution): 63 % of control

Which T/C (dose: 1.94 mg/kg/injection, schedule: Q01DX007 (ip), vehicle: carboxymethylcellulose (CMC)) does the source give for `CCN(CC)c1ccc(/C=C/c2ccnc3ccccc23)cc1` here?
The T/C was 77 % of control.

And the T/C (dose: 3.88 mg/kg/injection, schedule: Q01DX007 (ip), vehicle: carboxymethylcellulose (CMC))?
The T/C was 66 % of control.

What about the T/C (dose: 6.2 mg/kg/injection, schedule: Q01DX007 (ip), vehicle: other) of the same molecule?
The T/C was 63 % of control.

And the T/C (dose: 7.5 mg/kg/injection, schedule: Q01DX007 (ip), vehicle: other)?
Its T/C is 96 % of control.

And the T/C (dose: 7.75 mg/kg/injection, schedule: Q01DX007 (ip), vehicle: carboxymethylcellulose (CMC))?
Its T/C is 40 % of control.

What about the T/C (dose: 7.75 mg/kg/injection, schedule: Q01DX007 (ip), vehicle: other) of the same molecule?
Its T/C is 58 % of control.

And the T/C (dose: 10.0 mg/kg/injection, schedule: Q01DX007 (ip), vehicle: other)?
Its T/C is 107 % of control.

And the T/C (dose: 10.33 mg/kg/injection, schedule: Q01DX007 (ip), vehicle: other)?
The T/C was 72 % of control.

What about the T/C (dose: 12.0 mg/kg/injection, schedule: Q01DX007 (ip), vehicle: other) of the same molecule?
The T/C was 110 % of control.

What about the T/C (dose: 12.31 mg/kg/injection, schedule: Q01DX007 (ip), vehicle: carboxymethylcellulose (CMC)) of the same molecule?
Its T/C is 93 % of control and 110 % of control.

What about the T/C (dose: 15.5 mg/kg/injection, schedule: Q01DX007 (ip), vehicle: other) of the same molecule?
Its T/C is 90 % of control.

And the T/C (dose: 24.62 mg/kg/injection, schedule: Q01DX007 (ip), vehicle: carboxymethylcellulose (CMC))?
Its T/C is 59 % of control and 70 % of control.

What about the T/C (dose: 49.25 mg/kg/injection, schedule: Q01DX007 (ip), vehicle: carboxymethylcellulose (CMC)) of the same molecule?
The T/C was 53 % of control.

What does the source list for `C[C@]12CC[C@H]3[C@@H](CC=C4C[C@@H](OC5CCCCO5)CC[C@@]43C)[C@@H]1CC[C@@H]2O` (some centres not stated)?
T/C [1]: 95 % of control; T/C (dose: 75.0 mg/kg/injection, schedule: Q#A X014 (oral), vehicle: steriod suspending solution): 95 % of control; T/C (dose: 187.5 mg/kg/injection, schedule: Q#A X014 (oral), vehicle: steriod suspending solution): 80 % of control
